Source: ChEMBL document CHEMBL5678810

Legend:
[1] = molecular target: Aurora kinase B (Homo sapiens) (UniProt Q96GD4); test: Inhibition of T7 bacteriophage fused human AURKB at 10 uM by KINOMEscan analysis relative to control
[2] = tested on: Epidermal growth factor receptor (Homo sapiens), P00533 [G719C]; test: Inhibition of T7 bacteriophage fused human EGFR G719C mutant at 10 uM by KINOMEscan analysis relative to control
[3] = molecular target: Tyrosine-protein kinase HCK (Homo sapiens) (UniProt P08631); test: Inhibition of T7 bacteriophage fused human HCK at 10 uM by KINOMEscan analysis relative to control
[4] = molecular target: Serine/threonine-protein kinase Chk1 (Homo sapiens) (UniProt O14757); test: Inhibition of T7 bacteriophage fused human CHEK1 at 10 uM by KINOMEscan analysis relative to control
[5] = molecular target: Tyrosine-protein kinase Tec (Homo sapiens) (UniProt P42680); test: Inhibition of T7 bacteriophage fused human TEC at 10 uM by KINOMEscan analysis relative to control
[6] = molecular target: Serine/threonine-protein kinase SIK2 (Homo sapiens) (UniProt Q9H0K1); test: Inhibition of T7 bacteriophage fused human SIK2 at 10 uM by KINOMEscan analysis relative to control
[7] = molecular target: Serine/threonine-protein kinase Nek11 (Homo sapiens) (UniProt Q8NG66); test: Inhibition of T7 bacteriophage fused human NEK11 at 10 uM by KINOMEscan analysis relative to control
[8] = molecular target: cAMP-dependent protein kinase catalytic subunit beta (Homo sapiens) (UniProt P22694); test: Inhibition of T7 bacteriophage fused human PKAC-beta at 10 uM by KINOMEscan analysis relative to control
[9] = molecular target: Phosphatidylinositol 4-phosphate 3-kinase C2 domain-containing subunit beta (Homo sapiens) (UniProt O00750); test: Inhibition of T7 bacteriophage fused human PIK3C2B at 10 uM by KINOMEscan analysis relative to control
[10] = molecular target: Cyclin-dependent kinase 13 (Homo sapiens) (UniProt Q14004); test: Inhibition of T7 bacteriophage fused human CDC2L5 at 10 uM by KINOMEscan analysis relative to control
[11] = molecular target: TGF-beta receptor type-1 (Homo sapiens) (UniProt P36897); test: Inhibition of T7 bacteriophage fused human TGFBR1 at 10 uM by KINOMEscan analysis relative to control
[12] = molecular target: Calcium/calmodulin-dependent protein kinase type II subunit alpha (Homo sapiens) (UniProt Q9UQM7); test: Inhibition of T7 bacteriophage fused human CAMK2A at 10 uM by KINOMEscan analysis relative to control
[13] = molecular target: Activin receptor type-2B (Homo sapiens) (UniProt Q13705); test: Inhibition of T7 bacteriophage fused human ACVR2B at 10 uM by KINOMEscan analysis relative to control
[14] = molecular target: Mitogen-activated protein kinase kinase kinase 12 (Homo sapiens) (UniProt Q12852); test: Inhibition of T7 bacteriophage fused human DLK at 10 uM by KINOMEscan analysis relative to control; values are per cent of control
[15] = molecular target: Receptor-interacting serine/threonine-protein kinase 1 (Homo sapiens) (UniProt Q13546); test: Inhibition of T7 bacteriophage fused human RIPK1 at 10 uM by KINOMEscan analysis relative to control
[16] = molecular target: Dual specificity mitogen-activated protein kinase kinase 1 (Homo sapiens) (UniProt Q02750); test: Inhibition of T7 bacteriophage fused human MEK1 at 10 uM by KINOMEscan analysis relative to control
[17] = molecular target: Serine/threonine-protein kinase pim-1 (Homo sapiens) (UniProt P11309); test: Inhibition of T7 bacteriophage fused human PIM1 at 10 uM by KINOMEscan analysis relative to control
[18] = tested on: Hepatocyte growth factor receptor (Homo sapiens), P08581 [Y1235D]; test: Inhibition of T7 bacteriophage fused human MET Y1235D mutant at 10 uM by KINOMEscan analysis relative to control
[19] = molecular target: Cyclin-dependent kinase 4/cyclin D1 (Homo sapiens) (UniProt P11802+P24385); test: Inhibition of T7 bacteriophage fused human CDK4-cyclinD1 at 10 uM by KINOMEscan analysis relative to control; type: protein-complex assay
[20] = tested on: Mast/stem cell growth factor receptor Kit (Homo sapiens), P10721 [A829P]; test: Inhibition of T7 bacteriophage fused human KIT A829P mutant at 10 uM by KINOMEscan analysis relative to control
[21] = molecular target: RAC-beta serine/threonine-protein kinase (Homo sapiens) (UniProt P31751); test: Inhibition of T7 bacteriophage fused human AKT2 at 10 uM by KINOMEscan analysis relative to control
[22] = molecular target: Casein kinase I isoform gamma-3 (Homo sapiens) (UniProt Q9Y6M4); test: Inhibition of T7 bacteriophage fused human CSNK1G3 at 10 uM by KINOMEscan analysis relative to control; values are per cent of control
[23] = molecular target: Casein kinase I isoform gamma-1 (Homo sapiens) (UniProt Q9HCP0); test: Inhibition of T7 bacteriophage fused human CSNK1G1 at 10 uM by KINOMEscan analysis relative to control
[24] = molecular target: Tyrosine-protein kinase TXK (Homo sapiens) (UniProt P42681); test: Inhibition of T7 bacteriophage fused human TXK at 10 uM by KINOMEscan analysis relative to control
[25] = tested on: Proto-oncogene tyrosine-protein kinase receptor Ret (Homo sapiens), P07949 [V804L]; test: Inhibition of T7 bacteriophage fused human RET V804L mutant at 10 uM by KINOMEscan analysis relative to control
[26] = molecular target: Mitogen-activated protein kinase kinase kinase 13 (Homo sapiens) (UniProt O43283); test: Inhibition of T7 bacteriophage fused human LZK at 10 uM by KINOMEscan analysis relative to control
[27] = molecular target: TRAF2 and NCK-interacting protein kinase (Homo sapiens) (UniProt Q9UKE5); test: Inhibition of T7 bacteriophage fused human TNIK at 10 uM by KINOMEscan analysis relative to control
[28] = molecular target: Wee1-like protein kinase (Homo sapiens) (UniProt P30291); test: Inhibition of T7 bacteriophage fused human WEE1 at 10 uM by KINOMEscan analysis relative to control
[29] = molecular target: RAF proto-oncogene serine/threonine-protein kinase (Homo sapiens) (UniProt P04049); test: Inhibition of T7 bacteriophage fused human RAF1 at 10 uM by KINOMEscan analysis relative to control
[30] = molecular target: Tyrosine-protein kinase Yes (Homo sapiens) (UniProt P07947); test: Inhibition of T7 bacteriophage fused human YES at 10 uM by KINOMEscan analysis relative to control
[31] = molecular target: Tyrosine-protein kinase Fgr (Homo sapiens) (UniProt P09769); test: Inhibition of T7 bacteriophage fused human FGR at 10 uM by KINOMEscan analysis relative to control; values are per cent of control
[32] = molecular target: Tyrosine-protein kinase Lck (Homo sapiens) (UniProt P06239); test: Inhibition of T7 bacteriophage fused human LCK at 10 uM by KINOMEscan analysis relative to control

Chain of Wee1-like protein kinase (Homo sapiens) (P30291 whole entry, looked up, the tested form may be a part): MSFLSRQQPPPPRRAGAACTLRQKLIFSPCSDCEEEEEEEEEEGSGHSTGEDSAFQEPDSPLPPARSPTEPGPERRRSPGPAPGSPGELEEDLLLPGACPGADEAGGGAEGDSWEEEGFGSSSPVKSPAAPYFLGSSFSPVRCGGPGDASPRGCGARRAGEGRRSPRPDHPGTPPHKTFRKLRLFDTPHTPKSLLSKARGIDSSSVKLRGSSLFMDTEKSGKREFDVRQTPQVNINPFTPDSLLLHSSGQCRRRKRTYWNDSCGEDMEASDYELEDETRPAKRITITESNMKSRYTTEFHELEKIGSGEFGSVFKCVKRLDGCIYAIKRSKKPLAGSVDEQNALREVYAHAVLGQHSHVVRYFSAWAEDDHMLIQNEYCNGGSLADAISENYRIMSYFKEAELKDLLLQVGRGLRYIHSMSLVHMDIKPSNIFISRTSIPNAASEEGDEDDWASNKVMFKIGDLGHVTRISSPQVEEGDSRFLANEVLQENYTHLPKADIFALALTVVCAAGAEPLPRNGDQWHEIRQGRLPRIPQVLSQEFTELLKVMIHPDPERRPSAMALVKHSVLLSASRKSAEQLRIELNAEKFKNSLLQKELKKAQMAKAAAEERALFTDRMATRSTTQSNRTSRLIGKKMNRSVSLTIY
Chain of Mitogen-activated protein kinase kinase kinase 12 (Homo sapiens) (Q12852 whole entry, looked up, the tested form may be a part): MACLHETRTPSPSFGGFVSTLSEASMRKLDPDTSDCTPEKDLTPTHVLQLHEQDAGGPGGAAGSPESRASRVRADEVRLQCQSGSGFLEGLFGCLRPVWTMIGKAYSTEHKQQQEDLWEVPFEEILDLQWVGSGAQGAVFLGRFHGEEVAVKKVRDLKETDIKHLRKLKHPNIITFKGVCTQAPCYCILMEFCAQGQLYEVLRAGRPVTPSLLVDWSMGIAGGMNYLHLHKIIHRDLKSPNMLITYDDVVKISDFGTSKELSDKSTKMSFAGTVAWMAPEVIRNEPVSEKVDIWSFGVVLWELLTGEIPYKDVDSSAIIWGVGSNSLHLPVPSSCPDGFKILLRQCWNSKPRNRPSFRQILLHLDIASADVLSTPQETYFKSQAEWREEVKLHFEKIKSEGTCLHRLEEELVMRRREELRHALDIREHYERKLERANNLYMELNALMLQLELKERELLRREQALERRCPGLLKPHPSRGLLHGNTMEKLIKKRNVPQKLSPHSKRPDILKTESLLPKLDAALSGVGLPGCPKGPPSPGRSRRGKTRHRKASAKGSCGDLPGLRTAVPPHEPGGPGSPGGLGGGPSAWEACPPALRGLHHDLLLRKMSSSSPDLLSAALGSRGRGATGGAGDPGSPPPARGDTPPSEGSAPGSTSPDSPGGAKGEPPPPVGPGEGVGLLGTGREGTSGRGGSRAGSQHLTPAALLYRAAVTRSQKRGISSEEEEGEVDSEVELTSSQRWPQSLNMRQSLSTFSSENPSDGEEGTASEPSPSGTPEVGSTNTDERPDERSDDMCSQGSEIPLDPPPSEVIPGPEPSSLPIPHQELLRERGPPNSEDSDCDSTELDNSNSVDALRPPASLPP
Chain of Tyrosine-protein kinase Tec (Homo sapiens) (P42680 whole entry, looked up, the tested form may be a part): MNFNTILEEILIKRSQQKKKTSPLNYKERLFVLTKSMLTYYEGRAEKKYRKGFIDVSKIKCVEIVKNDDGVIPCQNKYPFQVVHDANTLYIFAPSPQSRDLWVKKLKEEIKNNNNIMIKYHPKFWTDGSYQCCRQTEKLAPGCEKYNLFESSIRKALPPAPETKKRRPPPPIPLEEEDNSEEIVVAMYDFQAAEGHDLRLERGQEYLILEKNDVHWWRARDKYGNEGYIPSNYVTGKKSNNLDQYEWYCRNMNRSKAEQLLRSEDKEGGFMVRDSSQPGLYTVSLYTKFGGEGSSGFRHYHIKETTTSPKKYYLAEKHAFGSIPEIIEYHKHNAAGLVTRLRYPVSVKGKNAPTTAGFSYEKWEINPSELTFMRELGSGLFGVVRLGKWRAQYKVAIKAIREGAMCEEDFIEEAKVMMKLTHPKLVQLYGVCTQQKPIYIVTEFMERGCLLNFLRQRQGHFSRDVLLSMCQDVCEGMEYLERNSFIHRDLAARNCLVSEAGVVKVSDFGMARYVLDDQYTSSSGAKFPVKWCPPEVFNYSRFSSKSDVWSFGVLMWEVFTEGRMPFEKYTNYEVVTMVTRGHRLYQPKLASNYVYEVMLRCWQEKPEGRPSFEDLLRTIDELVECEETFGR
Chain of Serine/threonine-protein kinase SIK2 (Homo sapiens) (Q9H0K1 whole entry, looked up, the tested form may be a part): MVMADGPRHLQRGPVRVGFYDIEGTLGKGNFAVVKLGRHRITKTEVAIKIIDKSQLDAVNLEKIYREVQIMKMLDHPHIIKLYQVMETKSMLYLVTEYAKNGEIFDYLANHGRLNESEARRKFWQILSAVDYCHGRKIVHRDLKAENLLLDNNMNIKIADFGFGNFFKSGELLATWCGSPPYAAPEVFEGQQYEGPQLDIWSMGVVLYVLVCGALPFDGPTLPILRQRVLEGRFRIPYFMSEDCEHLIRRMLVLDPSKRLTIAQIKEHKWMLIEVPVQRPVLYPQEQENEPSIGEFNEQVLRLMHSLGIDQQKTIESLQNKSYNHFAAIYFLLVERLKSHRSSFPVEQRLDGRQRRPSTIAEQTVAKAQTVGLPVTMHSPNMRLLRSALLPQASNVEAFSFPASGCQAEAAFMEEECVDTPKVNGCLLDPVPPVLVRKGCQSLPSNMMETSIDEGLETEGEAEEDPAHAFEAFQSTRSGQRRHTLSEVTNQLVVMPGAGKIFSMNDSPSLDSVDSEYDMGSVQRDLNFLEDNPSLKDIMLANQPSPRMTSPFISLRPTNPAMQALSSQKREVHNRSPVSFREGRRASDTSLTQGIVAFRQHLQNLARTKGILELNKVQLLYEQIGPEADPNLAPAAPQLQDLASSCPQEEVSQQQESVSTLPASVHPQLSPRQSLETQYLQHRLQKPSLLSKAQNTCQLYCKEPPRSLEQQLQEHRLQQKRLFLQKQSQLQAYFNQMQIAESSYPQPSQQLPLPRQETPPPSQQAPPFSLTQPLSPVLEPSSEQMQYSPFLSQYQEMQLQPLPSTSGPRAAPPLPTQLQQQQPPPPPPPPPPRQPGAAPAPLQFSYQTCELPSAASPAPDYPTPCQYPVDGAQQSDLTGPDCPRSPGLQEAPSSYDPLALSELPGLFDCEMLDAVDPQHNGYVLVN
Chain of Tyrosine-protein kinase Yes (Homo sapiens) (P07947 2-543 limits assumed): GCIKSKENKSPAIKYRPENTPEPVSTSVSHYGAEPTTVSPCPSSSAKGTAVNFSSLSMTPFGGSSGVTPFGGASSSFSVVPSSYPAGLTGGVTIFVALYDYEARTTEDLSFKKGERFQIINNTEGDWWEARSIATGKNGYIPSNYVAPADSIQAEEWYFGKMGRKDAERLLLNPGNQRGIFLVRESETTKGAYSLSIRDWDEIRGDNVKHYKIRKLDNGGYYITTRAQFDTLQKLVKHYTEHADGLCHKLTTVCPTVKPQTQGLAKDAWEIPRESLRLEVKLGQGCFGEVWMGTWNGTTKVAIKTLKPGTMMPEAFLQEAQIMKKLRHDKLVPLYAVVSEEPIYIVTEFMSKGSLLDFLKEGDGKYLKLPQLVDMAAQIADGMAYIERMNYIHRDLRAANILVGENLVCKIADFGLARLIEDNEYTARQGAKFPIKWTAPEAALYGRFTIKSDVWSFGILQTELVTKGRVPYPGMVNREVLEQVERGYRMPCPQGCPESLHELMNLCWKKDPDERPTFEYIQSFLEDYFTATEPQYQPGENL
Chain of Tyrosine-protein kinase TXK (Homo sapiens) (P42681 whole entry, the tested form may be a part): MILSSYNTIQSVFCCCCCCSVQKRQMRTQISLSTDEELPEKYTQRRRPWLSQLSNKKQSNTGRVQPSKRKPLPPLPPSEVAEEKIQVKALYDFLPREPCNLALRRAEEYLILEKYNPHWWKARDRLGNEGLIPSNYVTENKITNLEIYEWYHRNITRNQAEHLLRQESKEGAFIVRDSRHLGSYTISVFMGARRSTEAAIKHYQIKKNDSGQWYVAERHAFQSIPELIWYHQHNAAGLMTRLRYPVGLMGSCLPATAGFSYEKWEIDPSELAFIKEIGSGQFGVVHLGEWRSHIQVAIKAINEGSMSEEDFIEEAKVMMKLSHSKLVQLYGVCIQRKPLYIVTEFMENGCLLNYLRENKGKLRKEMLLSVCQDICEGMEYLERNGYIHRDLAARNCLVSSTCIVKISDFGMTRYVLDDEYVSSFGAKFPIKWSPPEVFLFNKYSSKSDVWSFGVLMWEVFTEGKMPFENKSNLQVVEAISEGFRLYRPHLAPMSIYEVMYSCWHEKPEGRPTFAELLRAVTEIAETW
Chain of TGF-beta receptor type-1 (Homo sapiens) (P36897 whole entry, the tested form may be a part): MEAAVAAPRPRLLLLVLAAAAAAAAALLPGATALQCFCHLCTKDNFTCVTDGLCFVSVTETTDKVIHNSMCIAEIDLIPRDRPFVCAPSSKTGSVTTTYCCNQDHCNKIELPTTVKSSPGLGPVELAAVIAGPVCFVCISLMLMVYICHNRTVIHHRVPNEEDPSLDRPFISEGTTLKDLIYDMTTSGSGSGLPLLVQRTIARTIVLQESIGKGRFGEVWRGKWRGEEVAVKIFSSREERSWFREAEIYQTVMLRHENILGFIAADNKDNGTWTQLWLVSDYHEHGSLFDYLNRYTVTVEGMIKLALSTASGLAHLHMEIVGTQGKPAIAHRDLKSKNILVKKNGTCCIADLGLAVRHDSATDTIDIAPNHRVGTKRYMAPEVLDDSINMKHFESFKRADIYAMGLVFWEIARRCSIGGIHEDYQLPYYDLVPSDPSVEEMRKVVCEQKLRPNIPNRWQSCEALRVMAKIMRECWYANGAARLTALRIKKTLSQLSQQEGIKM
Chain of Serine/threonine-protein kinase pim-1 (Homo sapiens) (P11309 whole entry, looked up, the tested form may be a part): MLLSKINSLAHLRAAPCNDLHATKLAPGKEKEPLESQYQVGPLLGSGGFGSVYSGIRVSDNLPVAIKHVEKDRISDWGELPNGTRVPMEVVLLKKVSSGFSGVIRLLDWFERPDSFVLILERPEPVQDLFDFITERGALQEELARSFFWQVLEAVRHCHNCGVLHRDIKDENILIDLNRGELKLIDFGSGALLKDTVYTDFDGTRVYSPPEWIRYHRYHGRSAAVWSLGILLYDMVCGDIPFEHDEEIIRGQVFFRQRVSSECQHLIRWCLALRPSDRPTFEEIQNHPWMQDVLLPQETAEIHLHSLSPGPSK

Question: `COc1cc(N2CCC(N3CCN(C)CC3)CC2)ccc1Nc1ncc2c(n1)N(C)c1ccccc1C(=O)N2C` was tested. Which inhibition [1] did it give?
Answer: 38%

Question: What about the inhibition [2] of the same compound?
Answer: 100%

Question: And the inhibition [3]?
Answer: 100%

Question: What about the inhibition [4] of the same compound?
Answer: 100%

Question: And the inhibition [5]?
Answer: 100%

Question: What about the inhibition [6] of the same compound?
Answer: 98%

Question: What about the inhibition [7] of the same compound?
Answer: 100%

Question: And the inhibition [8]?
Answer: 100%

Question: And the inhibition [9]?
Answer: 100%

Question: What about the inhibition [10] of the same compound?
Answer: 100%

Question: What about the inhibition [11] of the same compound?
Answer: 100%

Question: What about the inhibition [12] of the same compound?
Answer: 21%

Question: And the inhibition [13]?
Answer: 100%

Question: What about the residual activity [14] of the same compound?
Answer: 81%

Question: And the inhibition [15]?
Answer: 99%

Question: And the inhibition [16]?
Answer: 100%

Question: And the inhibition [17]?
Answer: 100%

Question: What about the inhibition [18] of the same compound?
Answer: 100%

Question: And the inhibition [19]?
Answer: 100%

Question: What about the inhibition [20] of the same compound?
Answer: 100%

Question: And the inhibition [21]?
Answer: 100%

Question: What about the residual activity [22] of the same compound?
Answer: 93%

Question: And the inhibition [23]?
Answer: 100%

Question: What about the inhibition [24] of the same compound?
Answer: 91%

Question: And the inhibition [25]?
Answer: 89%

Question: And the inhibition [26]?
Answer: 100%

Question: What about the inhibition [27] of the same compound?
Answer: 100%

Question: What about the inhibition [28] of the same compound?
Answer: 100%

Question: What about the inhibition [29] of the same compound?
Answer: 100%

Question: What about the inhibition [30] of the same compound?
Answer: 100%

Question: What about the residual activity [31] of the same compound?
Answer: 84%

Question: What about the inhibition [32] of the same compound?
Answer: 100%

Question: How did the inhibition [5] turn out when `CCOc1cc(C(=O)N2CCC(N3CCN(C)CC3)CC2)ccc1Nc1ncc2c(n1)N(C1CCCC1)c1ccccc1C(=O)N2C` was run?
Answer: 100%

Question: What about the inhibition [6] of the same compound?
Answer: 100%

Question: What about the inhibition [11] of the same compound?
Answer: 100%

Question: What about the residual activity [14] of the same compound?
Answer: 100%

Question: And the inhibition [24]?
Answer: 100%

Question: And the inhibition [28]?
Answer: 100%

Question: And the inhibition [30]?
Answer: 100%

Question: With `COc1cc(C(=O)N2CCC(N3CCN(C)CC3)CC2)ccc1Nc1ncc2c(n1)N(C1CCCC1)c1ccccc1C(=O)N2C` as the compound, how does the inhibition [27] read?
Answer: 100%
